Measurements published in patent US11584714B2 (priority 2018, dated 2023).
Where a name gives a salt, the structure may show the parent alone. Read-outs that look alike come from different tables or passages of the source.

What was measured:
Assay type in all cases: biochemical
[1] = target: mMASP-2 (Mus musculus (Mouse), UniProt Q91WP0); experiment: Enzymatic inhibition of mMASP-2
[2] = target: human α-thrombin (Homo sapiens (Human), UniProt P00734); experiment: Enzymatic assay for thrombin (Boc-VPR-AMC substrate)
[3] = tested on: Lectin Pathway; experiment: Lectin pathway activation assay in human serum (mannan-coated ELISA, C3c detection); conditions: 1% human serum
[4] = target: MASP-2 (CCP1-CCP2-SP) (Homo sapiens (Human), UniProt O00187); experiment: biochemical
[5] = selectivity for MASP-2 inhibition versus thrombin

MASP-2 (CCP1-CCP2-SP), sequence (O00187 445-686): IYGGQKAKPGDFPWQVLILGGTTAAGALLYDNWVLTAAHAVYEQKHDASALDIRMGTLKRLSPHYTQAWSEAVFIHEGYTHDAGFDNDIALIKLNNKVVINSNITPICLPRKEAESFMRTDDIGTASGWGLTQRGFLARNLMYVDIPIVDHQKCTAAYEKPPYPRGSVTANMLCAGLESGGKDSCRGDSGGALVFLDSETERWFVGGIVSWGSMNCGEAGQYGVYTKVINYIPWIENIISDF
mMASP-2, sequence (Q91WP0 20-685): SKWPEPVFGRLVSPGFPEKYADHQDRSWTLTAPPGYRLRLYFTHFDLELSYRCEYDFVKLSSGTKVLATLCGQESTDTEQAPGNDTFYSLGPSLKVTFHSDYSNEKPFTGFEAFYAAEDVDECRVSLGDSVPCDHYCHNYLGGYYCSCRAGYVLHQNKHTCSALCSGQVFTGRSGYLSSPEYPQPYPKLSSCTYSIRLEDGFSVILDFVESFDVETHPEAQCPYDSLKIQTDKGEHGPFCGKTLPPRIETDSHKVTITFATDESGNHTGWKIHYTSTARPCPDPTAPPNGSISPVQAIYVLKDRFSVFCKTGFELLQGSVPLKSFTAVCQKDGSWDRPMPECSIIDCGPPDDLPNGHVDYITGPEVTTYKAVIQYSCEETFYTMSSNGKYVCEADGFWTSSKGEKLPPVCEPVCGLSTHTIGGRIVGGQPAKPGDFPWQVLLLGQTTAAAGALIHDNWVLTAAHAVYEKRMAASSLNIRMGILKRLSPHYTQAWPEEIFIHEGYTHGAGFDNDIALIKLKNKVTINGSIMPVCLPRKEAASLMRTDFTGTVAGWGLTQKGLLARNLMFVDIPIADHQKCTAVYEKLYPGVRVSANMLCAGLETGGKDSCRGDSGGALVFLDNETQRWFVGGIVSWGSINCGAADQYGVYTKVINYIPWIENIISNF

SMILES | Ki ([1]; read-out: mMASP-2 Ki) [µM] | Ki ([2]; read-out: Thrombin Ki) [µM] | IC50 [3] [µM] | Ki ([4]; read-out: MASP-2 Ki) [µM] | MASP-2 vs. thrombin selectivity [4, 5] | MASP-2 vs. thrombin selectivity ([4]; MASP-2 inhibition versus thrombin) | Ki ([2]; Thrombin Ki (μM)) [µM] | Ki [4] [µM] | Ki [1] [µM]
Cc1cc(C)cc(C[C@@H]2CN[C@@H](C(=O)N[C@@H](C)C(=O)NCc3ccc(N)nc3C)C2)c1 [compound 1331, (2R,4S)—N—((S)-1-(((6-amino-2-methylpyridin-3-yl)methyl)amino)-1-oxopropan-2-yl)-4-(3,5-dimethylbenzyl)pyrrolidine-2-carboxamide Dihydrochloride] | < 0.5 | > 25 | 0.05 to 0.5 | < 0.5 | **** (≥100-fold) |  |  |  | 
C[C@H](NC(=O)[C@H](N)CCc1ccccc1)C(=O)NCc1ccc2nc(N)[nH]c2c1 (single isomer, unassigned) [compound 1040, Di-trifluoroacetate salt] | < 0.5 | > 25 | 0.5 to 5 | < 0.5 |  | **** (>100-fold) |  |  | 
Cc1nc(N)ccc1CNC(=O)[C@H](C)NC(=O)[C@H]1C[C@H](Cc2ccc(Br)cc2)CN1 [compound 1350, (2R,4S)—N—((S)-1-(((6-Amino-2-methylpyridin-3-yl)methyl)amino)-1-oxopropan-2-yl)-4-(4-bromobenzyl)pyrrolidine-2-carboxamide Dihydrochloride] | < 0.5 |  | 0.5 to 5 | < 0.5 | **** (≥100-fold) |  | 2.5 to 10 |  | 
Cc1nc(N)ccc1CNC(=O)Cn1c(C)cnc(NCCc2ccccc2)c1=O [compound 1488] | 2.5 to 10 | < 0.5 | 0.5 to 5 | < 0.5 | −− (<1.0-fold) |  |  |  | 
Cc1nc(N)ccc1CNC(=O)[C@H](C)NC(=O)[C@H]1C[C@H](Cc2ccc(C(C)(C)C)cc2)CN1 [compound 1380, (2R,4S)—N—((S)-1-(((6-Amino-2-methylpyridin-3-yl)methyl)amino)-1-oxopropan-2-yl)-4-(4-(tert-butyl)benzyl)pyrrolidine-2-carboxamide Dihydrochloride] | < 0.5 | > 25 | > 50 |  | *** (≥25 to <100-fold) |  |  | 0.5 to 2.5 | 
C[C@H](NC(=O)[C@H]1C[C@H](Cc2ccc3ccccc3c2)CN1)C(=O)NCc1cnc2[nH]cc(Cl)c2c1 [compound 1392, (2R,4S)—N—((S)-1-(((3-Chloro-1H-pyrrolo[2,3-b]pyridin-5-yl)methyl)amino)-1-oxopropan-2-yl)-4-(naphthalen-2-ylmethyl)pyrrolidine-2-carboxamide Di-Trifluoroacetate salt] | < 0.5 |  | 0.5 to 5 | < 0.5 | *** (≥25 to <100-fold) |  | 0.5 to 2.5 |  | 
Cc1nc(N)ccc1CNC(=O)[C@H](C)NC(=O)[C@H]1C[C@H](Cc2cccc(Cl)c2)CN1 [compound 1328, (2R,4S)—N—((S)-1-(((6-amino-2-methylpyridin-3-yl)methyl)amino)-1-oxopropan-2-yl)-4-(3-chlorobenzyl)pyrrolidine-2-carboxamide Dihydrochloride] | < 0.5 |  | 0.05 to 0.5 | < 0.5 | **** (≥100-fold) |  | 0.5 to 2.5 |  | 
Cc1nc(N)ccc1CNC(=O)[C@H](C)NC(=O)[C@H]1C[C@H](Cc2ccc(C#N)c3ccccc23)CN1 [compound 1431, (2R,4S)—N—((S)-1-(((6-Amino-2-methylpyridin-3-yl)methyl)amino)-1-oxopropan-2-yl)-4-((4-cyanonaphthalen-1-yl)methyl)pyrrolidine-2-carboxamide Dihydrochloride] | < 0.5 |  | 0.05 to 0.5 | < 0.5 | **** (≥100-fold) |  | 10 to 25 |  | 
Cc1nc(N)ccc1CNC(=O)[C@H](C)NC(=O)[C@H]1C[C@H](Cc2cccc(C#N)c2)CN1 [compound 1429, (2R,4S)—N—((S)-1-(((6-Amino-2-methylpyridin-3-yl)methyl)amino)-1-oxopropan-2-yl)-4-(3-cyanobenzyl)pyrrolidine-2-carboxamide Di-trifluoroacetate salt] | < 0.5 |  | 0.5 to 5 | < 0.5 | **** (≥100-fold) |  | 2.5 to 10 |  | 
COc1ccc2cc(C[C@@H]3CN[C@@H](C(=O)N[C@@H](C)C(=O)NCc4ccc(N)nc4C)C3)ccc2c1 [compound 1453, (2R,4S)—N—((S)-1-(((6-Amino-2-methylpyridin-3-yl)methyl)amino)-1-oxopropan-2-yl)-4-((6-methoxynaphthalen-2-yl)methyl)pyrrolidine-2-carboxamide Dihydrochloride] | < 0.5 |  | < 0.05 | < 0.5 | **** (≥100-fold) |  | 10 to 25 |  | 
Cc1cnc(NCCc2ccccc2)c(=O)n1CC(=O)NCc1ccc2nc(N)[nH]c2c1 [compound 1492, N-((2-Amino-1H-benzo[d]imidazol-6-yl)methyl)-2-(6-methyl-2-oxo-3-(phenethylamino)pyrazin-1(2H)-yl)acetamide Trifluoroacetamide salt] | < 0.5 | < 0.5 | 0.05 to 0.5 | < 0.5 | ** (≥5.0 to <25-fold) |  |  |  | 
C[C@H](NC(=O)[C@@H](CCc1ccccc1)NCCc1cccc(OC(F)(F)F)c1)C(=O)NCc1ccc(C(=N)N)cc1 [compound 1352, (R)—N—((S)-1-((4-Carbamimidoylbenzyl)amino)-1-oxopropan-2-yl)-4-phenyl-2-((3-(trifluoromethoxy)phenethyl)amino)butanamide Di-trifluoroacetate salt] | < 0.5 |  | 0.05 to 0.5 | < 0.5 | *** (≥25 to <100-fold) |  | 0.5 to 2.5 |  | 
Cc1nc(N)ccc1CNC(=O)[C@H](C)NC(=O)[C@H]1C[C@@H](c2ccccc2)CCN1 [compound 1253, (2R,4S)—N—((S)-1-(((6-Amino-2-methylpyridin-3-yl)methyl)amino)-1-oxopropan-2-yl)-4-phenylpiperidine-2-carboxamide] |  | > 25 | 0.05 to 0.5 | < 0.5 |  |  |  |  | 0.5 to 2.5
Cc1nc(N)ccc1CNC(=O)[C@H](C)NC(=O)[C@H]1C[C@H](Cc2ccc(F)cc2)CN1 [compound 1447, (2R,4S)—N—((S)-1-(((6-Amino-2-methylpyridin-3-yl)methyl)amino)-1-oxopropan-2-yl)-4-(4-fluorobenzyl)pyrrolidine-2-carboxamide Di-trifluoroacetate salt] | < 0.5 |  | 0.5 to 5 | < 0.5 | **** (≥100-fold) |  | 2.5 to 10 |  | 
Cc1nc(N)ccc1CNC(=O)[C@H](C)NC(=O)[C@H]1C[C@H](Cc2cc(Cl)cc3ccccc23)CN1 [compound 1432, (2R,4S)—N—((S)-1-(((6-Amino-2-methylpyridin-3-yl)methyl)amino)-1-oxopropan-2-yl)-4-((3-chloronaphthalen-1-yl)methyl)pyrrolidine-2-carboxamide Dihydrochloride] | < 0.5 |  | 0.5 to 5 | < 0.5 | **** (≥100-fold) |  | 10 to 25 |  | 
Cc1nc(N)ccc1CNC(=O)[C@H](C)NC(=O)[C@H]1C[C@H](Cc2ccc(-c3ccc(F)cc3C(N)=O)cc2)CN1 [compound 1397, (2R,4S)—N—((S)-1-(((6-amino-2-methylpyridin-3-yl)methyl)amino)-1-oxopropan-2-yl)-4-((2′-carbamoyl-4′-fluoro-[1,1′-biphenyl]-4-yl)methyl)pyrrolidine-2-carboxamide Di-trifluoroacetate salt] | < 0.5 | > 25 | 0.05 to 0.5 | < 0.5 | **** (≥100-fold) |  |  |  | 
C[C@H](NC(=O)[C@H]1C[C@@H](c2ccccc2)CCN1)C(=O)NCc1cnc2[nH]cc(Cl)c2c1 [compound 1433, (2R,4S)—N—((S)-1-(((3-Chloro-1H-pyrrolo[2,3-b]pyridin-5-yl)methyl)amino)-1-oxopropan-2-yl)-4-phenylpiperidine-2-carboxamide] | < 0.5 |  | 0.05 to 0.5 | < 0.5 | **** (≥100-fold) |  | 0.5 to 2.5 |  | 
Cc1nc(N)ccc1CNC(=O)[C@@H]1CCN1C(=O)[C@H]1C[C@H](Cc2ccc(Br)cc2)CN1 [compound 1438, (S)—N-((6-Amino-2-methylpyridin-3-yl)methyl)-1-((2R,4S)-4-(4-bromobenzyl)pyrrolidine-2-carbonyl)azetidine-2-carboxamide Di-trifluoroacetate salt] | 0.5 to 2.5 | < 0.5 | 0.5 to 5 | < 0.5 | ** (≥5.0 to <25-fold) |  |  |  | 
Cc1nc(N)ccc1CNC(=O)[C@H](C)NC(=O)C1=CC(c2ccccc2)C2=C(CC(C)(C)CC2=O)N1 (stereo partly drawn) [compound 1388, N-((S)-1-(((6-Amino-2-methylpyridin-3-yl)methyl)amino)-1-oxopropan-2-yl)-7,7-dimethyl-5-oxo-4-phenyl-1,4,5,6,7,8-hexahydroquinoline-2-carboxamide] | < 0.5 | > 25 | < 0.05 |  |  |  |  |  | 
Cc1nc(N)ccc1CNC(=O)C(C)NC(=O)[C@H]1C[C@H](c2cccc(-c3ccccc3)c2)CN1 (stereo in doubt) [compound 1360, (2R,4R)-4-([1,1′-Biphenyl]-3-yl)-N—((R)-1-(((6-amino-2-methylpyridin-3-yl)methyl)amino)-1-oxopropan-2-yl)pyrrolidine-2-carboxamide Di-trifluoroacetate salt] | < 0.5 | > 25 | 0.05 to 0.5 |  |  |  |  |  | 
C[C@H](NC(=O)[C@H](N)C1Cc2ccccc2C1)C(=O)NCc1ccc2nc(N)ccc2c1 [compound 1091] | < 0.5 | > 25 | 5 to 50 |  |  |  |  |  | 
